Assays:
Test in all cases: biochemical
[1] = molecular target: T1, panel of 374 wild-type kinases (Homo sapiens, UniProt P52333); conditions: read-out: % Enzyme Activity (relative to DMSO controls), JAK3
T1 construct: purchased Reaction Biology Corporation
T1 sequence (P52333 1-1124): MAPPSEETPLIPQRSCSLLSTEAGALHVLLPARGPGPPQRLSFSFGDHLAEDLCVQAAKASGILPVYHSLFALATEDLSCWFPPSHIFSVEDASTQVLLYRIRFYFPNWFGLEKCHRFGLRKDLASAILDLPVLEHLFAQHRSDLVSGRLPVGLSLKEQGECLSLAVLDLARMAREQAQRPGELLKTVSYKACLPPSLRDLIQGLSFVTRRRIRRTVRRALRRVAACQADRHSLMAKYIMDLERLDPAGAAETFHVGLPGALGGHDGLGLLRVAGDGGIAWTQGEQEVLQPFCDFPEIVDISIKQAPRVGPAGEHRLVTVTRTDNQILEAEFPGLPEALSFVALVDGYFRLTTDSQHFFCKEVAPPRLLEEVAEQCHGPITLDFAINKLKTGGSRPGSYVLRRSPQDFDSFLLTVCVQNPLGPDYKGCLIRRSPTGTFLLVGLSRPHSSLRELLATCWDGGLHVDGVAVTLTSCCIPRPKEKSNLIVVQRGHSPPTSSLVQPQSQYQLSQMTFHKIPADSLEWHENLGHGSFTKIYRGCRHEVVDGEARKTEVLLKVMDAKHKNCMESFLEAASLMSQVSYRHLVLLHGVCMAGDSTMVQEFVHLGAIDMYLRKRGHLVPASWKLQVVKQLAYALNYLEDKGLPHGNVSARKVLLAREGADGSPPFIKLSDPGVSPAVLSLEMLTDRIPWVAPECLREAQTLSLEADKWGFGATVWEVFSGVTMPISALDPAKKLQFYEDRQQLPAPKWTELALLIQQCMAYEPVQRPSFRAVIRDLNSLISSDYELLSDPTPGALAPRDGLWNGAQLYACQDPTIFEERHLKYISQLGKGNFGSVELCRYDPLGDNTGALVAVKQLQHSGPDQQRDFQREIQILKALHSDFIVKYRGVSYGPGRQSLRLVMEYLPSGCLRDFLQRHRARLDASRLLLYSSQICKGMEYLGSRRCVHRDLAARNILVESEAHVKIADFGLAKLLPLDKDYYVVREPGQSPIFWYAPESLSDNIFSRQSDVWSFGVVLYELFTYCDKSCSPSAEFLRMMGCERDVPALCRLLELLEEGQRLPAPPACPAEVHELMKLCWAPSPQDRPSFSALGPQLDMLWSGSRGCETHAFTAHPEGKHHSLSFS

[2] = molecular target: T2, panel of 374 wild-type kinases (Homo sapiens, UniProt Q15349); conditions: read-out: % Enzyme Activity (relative to DMSO controls), kinase RSK3
T2 construct: purchased Reaction Biology Corporation
T2 sequence (Q15349 whole entry): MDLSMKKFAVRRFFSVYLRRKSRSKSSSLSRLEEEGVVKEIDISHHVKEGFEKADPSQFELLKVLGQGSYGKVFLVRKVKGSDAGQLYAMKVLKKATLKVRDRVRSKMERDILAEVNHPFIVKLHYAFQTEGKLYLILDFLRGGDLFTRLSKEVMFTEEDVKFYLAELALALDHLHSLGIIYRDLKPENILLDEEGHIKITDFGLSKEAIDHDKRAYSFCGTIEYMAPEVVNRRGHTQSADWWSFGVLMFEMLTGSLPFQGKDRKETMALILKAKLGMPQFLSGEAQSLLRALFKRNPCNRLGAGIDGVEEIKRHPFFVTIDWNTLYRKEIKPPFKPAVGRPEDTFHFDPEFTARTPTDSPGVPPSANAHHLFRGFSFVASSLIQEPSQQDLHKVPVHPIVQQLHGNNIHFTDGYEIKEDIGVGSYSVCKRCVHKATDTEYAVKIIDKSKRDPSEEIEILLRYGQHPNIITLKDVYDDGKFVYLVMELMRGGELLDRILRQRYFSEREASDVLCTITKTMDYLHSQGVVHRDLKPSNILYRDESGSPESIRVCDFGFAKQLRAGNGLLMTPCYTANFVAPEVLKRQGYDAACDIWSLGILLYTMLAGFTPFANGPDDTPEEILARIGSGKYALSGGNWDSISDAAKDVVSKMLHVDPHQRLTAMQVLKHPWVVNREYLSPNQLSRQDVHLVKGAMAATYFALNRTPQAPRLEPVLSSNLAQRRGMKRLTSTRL

[3] = molecular target: T3, panel of 374 wild-type kinases (Homo sapiens, UniProt Q13464); conditions: read-out: % Enzyme Activity (relative to DMSO controls), kinase ROCK1
T3 construct: purchased Reaction Biology Corporation
T3 sequence (Q13464 whole entry): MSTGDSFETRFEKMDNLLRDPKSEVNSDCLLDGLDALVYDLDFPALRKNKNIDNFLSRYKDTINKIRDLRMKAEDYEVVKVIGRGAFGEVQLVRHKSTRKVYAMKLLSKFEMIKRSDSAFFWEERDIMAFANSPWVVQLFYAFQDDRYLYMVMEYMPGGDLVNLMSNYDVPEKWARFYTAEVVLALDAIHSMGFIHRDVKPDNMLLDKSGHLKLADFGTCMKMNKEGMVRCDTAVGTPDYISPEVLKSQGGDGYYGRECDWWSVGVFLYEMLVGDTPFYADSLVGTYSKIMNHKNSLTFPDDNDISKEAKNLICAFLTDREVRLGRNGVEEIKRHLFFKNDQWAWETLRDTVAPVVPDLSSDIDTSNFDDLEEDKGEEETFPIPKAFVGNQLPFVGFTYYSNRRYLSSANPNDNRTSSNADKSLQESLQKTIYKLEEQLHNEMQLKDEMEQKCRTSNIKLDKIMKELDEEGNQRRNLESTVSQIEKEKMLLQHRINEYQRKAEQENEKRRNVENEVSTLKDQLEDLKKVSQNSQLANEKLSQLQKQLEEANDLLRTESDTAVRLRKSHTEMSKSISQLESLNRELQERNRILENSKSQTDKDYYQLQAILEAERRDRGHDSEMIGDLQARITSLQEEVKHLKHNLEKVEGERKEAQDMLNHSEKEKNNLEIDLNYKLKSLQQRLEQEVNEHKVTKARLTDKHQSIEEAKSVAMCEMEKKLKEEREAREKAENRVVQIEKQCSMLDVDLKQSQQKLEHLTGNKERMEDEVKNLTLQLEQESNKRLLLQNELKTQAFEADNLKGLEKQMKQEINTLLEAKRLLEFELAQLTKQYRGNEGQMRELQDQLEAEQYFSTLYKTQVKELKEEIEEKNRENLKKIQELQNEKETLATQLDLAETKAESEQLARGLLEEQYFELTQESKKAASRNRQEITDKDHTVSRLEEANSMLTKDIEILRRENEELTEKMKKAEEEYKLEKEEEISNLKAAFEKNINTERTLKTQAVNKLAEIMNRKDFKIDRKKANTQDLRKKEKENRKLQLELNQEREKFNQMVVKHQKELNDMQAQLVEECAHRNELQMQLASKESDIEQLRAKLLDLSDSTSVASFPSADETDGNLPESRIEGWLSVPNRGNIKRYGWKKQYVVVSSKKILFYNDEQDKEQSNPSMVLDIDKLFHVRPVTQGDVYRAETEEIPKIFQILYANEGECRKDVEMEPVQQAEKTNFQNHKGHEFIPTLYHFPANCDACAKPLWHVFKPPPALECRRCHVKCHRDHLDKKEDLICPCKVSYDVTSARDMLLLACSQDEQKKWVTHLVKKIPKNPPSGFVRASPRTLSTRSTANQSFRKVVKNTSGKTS

[4] = molecular target: T4, panel of 374 wild-type kinases (Homo sapiens, UniProt Q8WXR4); conditions: read-out: % Enzyme Activity (relative to DMSO controls), MYO3b
T4 construct: purchased Reaction Biology Corporation
T4 sequence (Q8WXR4 1-1341): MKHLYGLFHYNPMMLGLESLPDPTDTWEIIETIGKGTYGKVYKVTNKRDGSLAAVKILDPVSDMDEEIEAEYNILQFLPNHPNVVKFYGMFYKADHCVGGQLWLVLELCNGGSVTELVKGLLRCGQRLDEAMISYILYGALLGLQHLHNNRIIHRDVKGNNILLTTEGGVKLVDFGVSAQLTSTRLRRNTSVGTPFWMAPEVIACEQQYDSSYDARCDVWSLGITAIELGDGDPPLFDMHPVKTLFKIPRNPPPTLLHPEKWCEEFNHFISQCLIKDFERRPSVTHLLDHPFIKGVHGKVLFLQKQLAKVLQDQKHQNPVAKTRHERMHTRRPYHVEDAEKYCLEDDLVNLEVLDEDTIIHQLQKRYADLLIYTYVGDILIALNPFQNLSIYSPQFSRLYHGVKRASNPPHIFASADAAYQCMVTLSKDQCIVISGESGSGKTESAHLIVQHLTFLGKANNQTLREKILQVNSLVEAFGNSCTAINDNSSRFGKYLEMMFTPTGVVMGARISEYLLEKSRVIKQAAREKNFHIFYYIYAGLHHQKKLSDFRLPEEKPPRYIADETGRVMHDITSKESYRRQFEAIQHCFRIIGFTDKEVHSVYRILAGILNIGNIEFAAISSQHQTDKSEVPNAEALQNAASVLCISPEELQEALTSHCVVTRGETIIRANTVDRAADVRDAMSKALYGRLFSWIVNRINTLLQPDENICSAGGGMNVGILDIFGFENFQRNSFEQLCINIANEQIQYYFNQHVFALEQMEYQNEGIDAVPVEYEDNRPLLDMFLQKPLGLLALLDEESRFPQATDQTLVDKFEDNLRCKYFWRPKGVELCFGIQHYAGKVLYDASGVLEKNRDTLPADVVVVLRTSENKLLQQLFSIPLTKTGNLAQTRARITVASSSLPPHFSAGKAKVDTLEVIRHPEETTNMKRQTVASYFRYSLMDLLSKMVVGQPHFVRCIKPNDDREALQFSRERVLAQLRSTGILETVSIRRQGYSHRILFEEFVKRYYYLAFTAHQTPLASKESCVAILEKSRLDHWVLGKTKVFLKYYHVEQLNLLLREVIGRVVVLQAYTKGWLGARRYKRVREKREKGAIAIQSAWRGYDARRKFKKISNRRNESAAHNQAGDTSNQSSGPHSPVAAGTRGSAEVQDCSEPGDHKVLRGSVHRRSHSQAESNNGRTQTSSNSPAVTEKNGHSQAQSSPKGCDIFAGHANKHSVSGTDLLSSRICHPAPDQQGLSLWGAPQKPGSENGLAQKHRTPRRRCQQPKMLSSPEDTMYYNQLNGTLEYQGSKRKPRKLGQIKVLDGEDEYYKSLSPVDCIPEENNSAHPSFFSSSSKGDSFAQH

Row | Structure (SMILES) | remaining activity at 5 µM [1] [%] | remaining activity at 5 µM [2] [%] | remaining activity at 5 µM [3] [%] | remaining activity at 5 µM [4] [%] | remaining activity at 10 µM ([1]; 10 uM) [%] | remaining activity at 10 µM ([2]; 10 uM) [%] | remaining activity at 10 µM ([3]; 10 uM) [%] | remaining activity at 10 µM ([4]; 10 uM) [%]
1 | O=C(Nc1cnn(-c2csc(C(=O)NC3COC3)c2)c1)Nc1ccccc1Cl [Compound 17, 4-(4-(3-(2-chlorophenyl)ureido)-1H-pyrazol-1-yl)-N-(oxetan-3-yl)thiophene-2-carboxamide] | 102 | 103 | 109 | 128 | – | – | – | –
2 | O=C(Nc1cnn(-c2csc(C(=O)NC3COC3)c2)c1)Nc1c(F)cccc1Cl [Compound 25, 4-(4-(3-(2-chloro-6-fluorophenyl)ureido)-1H-pyrazol-1-yl)-N-(oxetan-3-yl)thiophene-2-carboxamide] | 98.7 | 90.1 | 78.2 | 101 | – | – | – | –
3 | Cc1sc(C(=O)NC2COC2)cc1-n1cc(NC(=O)Nc2c(F)cccc2Cl)cn1 [Compound 27, 4-(4-(3-(2-chloro-6-fluorophenyl)ureido)-1H-pyrazol-1-yl)-5-methyl-N-(oxetan-3-yl)thiophene-2-carboxamide] | – | – | – | – | 96.7 | 100 | 96.8 | 78.7

From patent US20240246942A1, “KINASE INHIBITORS FOR THE TREATMENT OF NEURODEGENERATIVE DISEASES” (priority 2020, published 2024)
